Experimental data taken from article PMC7845594, “Novel Immune Modulators Enhance Caenorhabditis elegans Resistance to Multiple Pathogens” (mSphere, 2021).
Where “and” joins values, the source holds several entries; their conditions need not be identical. Equal values may be shown once.

Columns and labels:
[1] = system: glp-4(bn2) C. elegans exposed to P. aeruginosa PA14; test: P. aeruginosa liquid killing assay (effective rescue concentration); assay type: in vivo, Caenorhabditis elegans; conditions: glp-4(bn2) worms, ± 95% confidence interval
Experimental: For the first round of characterization, 69 novel small molecules previously selected on the basis of their ability to improve C. elegans survival during exposure to P. aeruginosa in liquid ([14]) were tested for the ability to interfere with bacterial growth. MICs were determined for each compound by growing P. aeruginosa strain PA14 in static culture in 384-well plates with serial 2-fold dilutions of compounds. No worms were used in these assays. Next, effective rescue concentrations (EC; defined as the minimum concentration that results in statistically significant survival, compared to dimethyl sulfoxide [DMSO]) ([15], [18]) were determined for each compound using the standard P. aeruginosa liquid killing assay. Sterile glp-4(bn2) worms were used in all liquid-based assays to limit artifacts (i.e., unlaid eggs will hatch and cause matricide).
FIG 1 LK molecules rescue C. elegans from P. aeruginosa in liquid killing. […] (B) Lipinski values for the five LK molecules, showing their molecular mass, predicted octanol-water partition coefficient, polar surface area, number of hydrogen donors and acceptors, and the number of rotatable bonds. (C) Minimum effective concentrations (EC) and 95% confidence interval, MICs (defined as the minimum concentration to prevent grown in LB media), and their ratio (MIC/EC). The minimum effective concentration was calculated from the lowest concentration that retained statistically significant rescue of glp-4(bn2) C. elegans, a temperature-sensitive sterile strain, from exposure to P. aeruginosa PA14. […] Compounds were added in serial 2-fold dilutions from 50 µM to 12.5 μM. *, P < 0.05; **, P < 0.01; ***, P < 0.001. P values were calculated using Student’s t test. At least six wells containing 20 worms each per condition per replicate were used for determination of liquid killing. EC values were calculated based on at least three biological replicates. Error bars represent the standard error of the mean.
Liquid killing of C. elegans was performed as previously described with some changes ([91]). In brief, an overnight culture of LB medium was inoculated with a single colony of Pseudomonas aeruginosa strain PA14. Then, 400 µl of culture was spread onto a 10-cm slow-kill agar plate ([91]) and grown for 24 h at 37°C, followed by 24 h at 25°C. Bacteria were scraped from the plate, resuspended in S Basal medium, and added to 384-well plates with small molecules dissolved in DMSO. Solution in wells contained a final concentration of 40% SK media, 59% S Basal medium, 1% DMSO, and small molecules. For all liquid-based killing assays, solvent control wells contained 1% DMSO. MgSO4 and CaCl2 (300 µM) and cholesterol (1.6 µg/ml) were added to aid in production of virulence factors. Worms were sorted into 384-well plates using a COPAS FlowSort (Union Biometrica, Holliston, MA), incubated at 25°C until the DMSO control was roughly 35 to 55% dead, washed four times using an EL406 microplate washer (BioTek, VT), and stained with 50 μl of Sytox Orange at 1 µM to fluorescently stain dead worms. Wells were imaged in bright-field and RFP channels using the BioTek Cytation5, followed by image analysis using the CellProfiler software package to calculate fraction of dead worms in each well. EC values were defined as the minimum concentration that provided statistically significant rescue. At least three biological replicates were performed.

[2] = system: C. elegans exposed to P. aeruginosa strain PA14; test: P. aeruginosa slow-killing assay (agar); assay type: in vivo, Caenorhabditis elegans; conditions: for Rescue in slow killing on disruption of the PMK-1 MAPK pathway: pmk-1 or atf-7 RNAi; for Survival in slow-killing assay vs DMSO: wild-type young adult worms
From the text: The finding that each of the compounds activated PMK-1/p38 MAPK targets was of interest, as this pathway is associated with enhanced immunity against multiple bacterial pathogens in agar-based C. elegans assays. Therefore, we tested whether these compounds could promote survival in an agar-based, high-colonization pathogenesis model known as slow killing. Loss of PMK-1 activity substantially compromises survival in the slow-killing assay ([16], [47]). Wild-type, young adult worms were exposed to P. aeruginosa strain PA14 on agar plates impregnated with each of the five compounds. […] To see whether this depended upon the PMK-1 pathway, LK32, LK38, and LK56 were retested in worms where RNAi was used to knock down pmk-1/MAPK or atf-7/ATF7 (a key transcription factor whose activity is modulated by PMK-1 [63, 64]) (Fig. 9; see Table S2 in the supplemental material for TD50 and overall statistical significance).
FIG 8 Four LK molecules extend C. elegans life span in the slow-killing assay. […] The data shown are from a representative replicate. Each of the three biological replicates was comprised of three plates per condition, with each plate containing ∼60 worms. Statistical significance was calculated using a log-rank test. Worms that left the surface of the plate were excluded from analysis (see Table S2 in the supplemental material for TD50 and exact P values).
FIG 9 Rescue in slow killing by a subset of LK compounds depends upon the PMK-1/p38 MAPK pathway. Wild-type L4 worms were reared on RNAi targeting pmk-1/p38 MAPK, atf-7/ATF-7, or empty vector and placed onto slow-killing plates containing DMSO or LK32 (A and B), LK38 (C and D), or LK56 (E and F) at 50 µM. Starting at 24 h, worms were scored every 12 h for survival until all worms perished. Each of the three biological replicates was comprised of three plates, each plate contained approximately 50 to 70 worms. Statistical significance was calculated using log-rank test (see Table S2 in the supplemental material for TD50 and exact P values). For vector RNAi, DMSO versus compound, P < 0.001 for LK38, LK56, and LK32.
Supplementary file : FIG S5 NSY-1 and SEK-1, upstream members of the PMK-1/p38 MAPK pathway, are required for LK38-mediated rescue. Young adult wild-type, nsy-1/MAP3K15(ag3), or sek-1/MAP2K6(km-4) mutants were exposed to P. aeruginosa in the slow-killing assay in the presence of DMSO or LK38. Data for each condition at each time point represent the average value for three plates from one representative replicate (of three replicates total). Each plate contained ∼60 worms. P values were calculated using a log-rank test (see Table S2 in the supplemental material for the TD50 and exact P values). For wild-type DMSO versus LK38 P < 0.001. No statistically significant difference was measured between LK38 and DMSO for either mutant. Download FIG S5, PDF file, 0.1 MB.
Slow-killing (SK) plates were made as previously reported ([92]). Compounds were added to molten SK agar before pouring plates. After solidifying, 40 µl of PA14 overnight culture was spread on plates before incubating plates at 37°C for 24 h, followed by 25°C for 24 h. 5-fluoro-2′-deoxyuridine (FUDR) (0.1 mg/ml) was dropped on plates 30 min prior to picking worms, to ensure nematode sterility. Fifty to seventy L4-stage, wild-type worms were picked onto plates and scored every 12 h after the first 24 h, until all worms were dead. Three biological replicates were performed.

[3] = vector RNAi, 50 µM, Fig 9 panels A-B, C, E
[4] = wild-type worms, 50 µM, Fig 8 (DMSO 58.9)
[5] = vector RNAi, 50 µM, Fig 9 panels D, F

Compound | EC (minimum effective concentration giving statistically significant rescue) [1] | TD50, slow killing ([2]; atf-7 RNAi, 50 µM, Fig 9) [h] | TD50, slow killing ([2]; pmk-1 RNAi, 50 µM, Fig 9) [h] | Rescue in slow killing on disruption of the PMK-1 MAPK pathway ([2]; 50 µM) | TD50, slow killing [2, 3] [h] | Survival in slow-killing assay vs DMSO ([2]; 50 µM) | TD50, slow killing [2, 4] [h] | TD50, slow killing ([2]; N2 wild-type, Fig S5) [h] | TD50, slow killing ([2]; nsy-1(ag3) mutant, Fig S5) [h] | TD50, slow killing ([2]; sek-1(km4) mutant, Fig S5) [h] | TD50, slow killing [2, 5] [h]
COC(=O)/C=C/C(=O)Nc1ccccc1 [LK32] | 32 ± 0.0 µM and 32 µM | 46.2 | 45.6 | retained at least partial ability to rescue | 59.1 | improved survival | – | – | – | – | –
CNC(=O)Oc1c(Br)cc2sc(=O)oc2c1Br [LK34] | 9.3 ± 4.4 µM and 9.3 µM | – | – | – | – | improved survival | – | – | – | – | –
CCN(CC)/N=N/c1ccc(C(=O)O)cc1 [LK35] | 17.3 ± 6.1 µM | – | – | – | – | not significant | 57.5 | – | – | – | –
CN(C)/N=N/c1ccc(-c2cn(Cc3ccccc3)cn2)cc1 [LK38] | 6.7 ± 2.0 µM | 36.8 | 35.6 | completely dependent upon the PMK-1/MAPK pathways | 65.2 | improved survival | 59.5 | 59.5 | 26.5 | 27.6 | 53.5
O=c1cc(CNc2ccc(Br)cc2)nc2sccn12 [LK56] | 7.3 ± 1.9 µM and 7.3 µM | 38.5 | 38.0 | retained at least partial ability to rescue | 59.9 | improved survival | 60.5 | – | – | – | 56.1
